We go through 15 compounds from US20030153571A1 (priority 2002, published 2003).

For data set [1], the target named is T1, NMDA receptor glycine site (Rattus norvegicus, UniProt P35439).
T1 construct: to brain membranes bearing the receptor; tissue Analytical Biological Services Inc; host or cells: rat brain membranes (cerebral cortex and hippocampus, male Sprague Dawley rats)
Kind of data set: Test A: Inhibition of binding of [3H]-MDL105,519 to brain membranes. The note with it: inhibition of [3H]MDL105,519 binding. The text has this:
Test A: Inhibition of binding of [^3H]-MDL105,519:
Binding of compounds to the NMDA receptor glycine site may be assessed by measuring the ability of test compounds to inhibit the binding of tritiated MDL105,519 to brain membranes bearing the receptor.
Briefly, fresh brain tissue including cerebral cortex and hippocampus from male Sprague Dawley rats was homogenized in 0.32 M sucrose and centrifuged at low speed to separate cellular membranes from other cellular components. The membranes were then washed 3 times using deionized water, followed by treatment with 0.04% Triton X-100. Finally, membranes were washed six times in 50 mM Tris citrate buffer, pH 7.4, and frozen at −80° C. until use.
[^3H]MDL105,519 (72 Ci/mmol) was purchased from Amersham. Cold MDL105,519 was purchased from Sigma/RBI. […] On the day of the experiment, brain membranes were thawed at room temperature and suspended in 50 mM tris acetate buffer, pH 7.4 (“TAB”). Seventy-five micro grams per milliliter protein (by using the BioRad dye) were used for competition binding. The experiments were carried out using 96-well plates. […] Non specific binding was determined by using 100 μM of unlabeled MDL105,519. […] After incubation, unbound [^3H]MDL105,519 was removed by filtration onto GF/B Unifilter plates using a Packard harvester. Filters were washed four times with ice cold TAB (total of 1.2 mL buffer). The plates were dried overnight at room temperature and bound radioactivity was measured on a Packard TopCount after the addition of 45 μL per well of the MICROSCINT O.
Human Brain Membranes: Human brain membranes were obtained from Analytical Biological Services Inc., and assays were performed as described for rat membranes.
Data analysis: Data was analyzed using a Microsoft Excel spreadsheet and GraphPad Prizm software and potency of compounds is expressed as the Ki (nM).

Data set [2] has as its system CCI rats (thermal hyperalgesia). Description: Test C: Neuropathic pain model (Chronic Constriction Injury), thermal hyperalgesia paw-withdrawal test. In kind it is in vivo, rat. The note with it: oral, three times daily for 5 days. The source says:
Test C: Neuropathic pain model (Chronic Constriction Injury):
The anti-hyperalgesic properties of a compound may be tested with the Chronic Constriction Injury (“CCI”) model. The test is a model for neuropathic pain associated with nerve injuries that can arise directly from trauma and compression, or indirectly from a wide range of diseases such as infection, cancer, metabolic conditions, toxins, nutritional deficiencies, immunological dysfunction, and musculoskeletal changes. In the model a unilateral peripheral hyperalgesia is produced in rats by nerve ligation (G. J. Bennett, et al., Pain 33, 87-107 (1988)).
Procedurally, Sprague-Dawley rats (250-350 g) are anesthetized with sodium pentobarbital and the common sciatic nerve is exposed at the level of the mid thigh by blunt dissection through the biceps femoris. […] Thermal hyperalgesia is measured using a paw-withdrawal test (K. Hargreaves, et al., Pain 32, 77-88 (1988)). […] The latencies for the withdrawal reflex in both hind paws are recorded.
Injured paws with ligated nerves show shorter paw withdrawal latencies compared to the uninjured or sham operated paws. Responses to test compounds are evaluated at different times after oral administration to determine the onset and duration of compound effect. […] Paw withdrawal latencies are measured each day 10 min before and 2 or 3 hr. after the first daily dose. […]

Setting [3] is: brain membranes (rat and human membranes described; table does not say which).

With `CC(c1ccco1)n1nc(O)c2[nH]c3cc(Cl)ccc3c(=O)c2c1=O` (racemic), in data set [1] (setting [3]), affinity was put at a Ki of 153 nM. Still for that read-out and setting: in the case of `CCC(c1ccccn1)n1[nH]c(=O)c2nc3cc(Cl)ccc3c(O)c2c1=O` (racemic) [Ex. 4, (+/−)-7-Chloro-4-hydroxy-2-(propyl-1-(2-pyridyl))-1,2,5,10-tetrahydropyridazino [4,5-b]quinoline-1,10-dione methanesulfonate] it was 1810 nM.

Consider `CCCC(c1ccccn1)n1nc(O)c2[nH]c3cc(Cl)ccc3c(=O)c2c1=O` (racemic) [Ex. 6, (+/−)-7-Chloro-4-hydroxy-2-(butyl-1-(2-pyridyl))-1,2,5,10-tetrahydropyridazino[4,5-b]quinoline-1,10-dione methanesulfonate], for which the Ki in data set [1] (brain membranes) is above 10000 nM. With `CCCC(c1ccncc1)n1nc(O)c2[nH]c3cc(Cl)ccc3c(=O)c2c1=O` (racemic) [Ex. 7, (+/−)-7-Chloro-4-hydroxy-2-(butyl-1-(4-pyridyl))-1,2,5,10-tetrahydropyridazino[4,5-b]quinoline-1,10-dione], in data set [1] (setting [3]), affinity was put at a Ki of 4340 nM.

`CC(C)C(c1ccncc1)n1nc(O)c2[nH]c3cc(Cl)ccc3c(=O)c2c1=O` (racemic) [Ex. 8, (+/−)-7-Chloro-4-hydroxy-2-(propyl-(2-methyl-1-(4-pyridyl))-1,2,5,10-tetrahydropyridazino[4,5-b]quinoline-1,10-dione methanesulfonate] yielded a Ki in data set [1] (setting [3]) of 5230 nM.

Regarding `CC(C)CC(c1ccncc1)n1[nH]c(=O)c2nc3cc(Cl)ccc3c(O)c2c1=O` (racemic) [Ex. 12, (+/−)-7-Chloro-4-hydroxy-2-(3-methyl-1-(4-pyridyl)butyl)-1,2,5,10-tetrahydropyridazino[4,5-b]quinoline-1,10-dione], the inhibition constant (Ki) in data set [1] (setting [3]) turned out to be 5230 nM.

On to `COc1cnccc1C(C)n1nc(O)c2[nH]c3cc(Cl)ccc3c(=O)c2c1=O` (racemic) [Ex. 13, (+/−)7-Chloro-4-hydroxy-2-(1-(3-methoxypyrid-4-yl))ethyl-1,2,5,10-tetrahydropyridazino[4,5-b]quinoline-1,10-dione methanesulfonate], for which, in data set [1] (setting [3]), the Ki was 568 nM. Still for that read-out and setting: the same measure for `COc1ccc(C(C)n2nc(O)c3[nH]c4cc(Cl)ccc4c(=O)c3c2=O)cn1` (racemic) [Ex. 14, (+/−)-7-Chloro-4-hydroxy-2-(1-(2-methoxypyrid-5-yl))ethyl-1,2,5,10-tetrahydropyridazino[4,5-b]quinoline-1,10-dione methanesulfonate]: 312 nM. As to `CC(c1ccnc(Cl)c1)n1nc(O)c2[nH]c3cc(Cl)ccc3c(=O)c2c1=O` (racemic) [Ex. 16, (+/−)-7-Chloro-1-hydroxy-2-(2-chloro(4-pyridyl)ethyl)-1,2,5,10-tetrahydropyridazino[4,5-b]quinoline-1,10-dione], the affinity in data set [1] (setting [3]), expressed as Ki, was 51 nM.

For `CS(=O)(=O)O.O=c1c2ccc(Cl)cc2[nH]c2c(O)nn(CCc3ccncc3)c(=O)c12` [Ex. 2, (+/−)-7-Chloro-4-hydroxy-2-(4-pyridyleth-1-yl)-1,2,5,10-tetrahydropyridazino[4,5-b]quinoline-1,10-dione methanesulfonate], the melting point is 245 to 248 °C. As for `O=c1c2ccc(Cl)cc2[nH]c2c(O)nn(CCc3cccnc3Cl)c(=O)c12` [Ex. 15, (+/−)-7-Chloro-4-hydroxy-2-(2-chloro-pyrid-3-yl)ethyl-1,2,5,10-tetrahydropyridazino[4,5-b]quinoline-1,10-dione], the affinity in data set [1] (setting [3]), expressed as Ki, was 676 nM. The same measure, in the same setting: the same measure for `CC(c1cc2ccccc2s1)n1nc(O)c2[nH]c3cc(Cl)ccc3c(=O)c2c1=O` (centres unmarked) [Ex. 21]: 177 nM; for `CC(c1ccc(C#N)s1)n1nc(O)c2[nH]c3cc(Cl)ccc3c(=O)c2c1=O` (centres unmarked) [Ex. 22, 7-Chloro-4-hydroxy-2-(1-(5-cyanothien-2-yl)ethyl)-1,2,5,10-tetrahydropyridazino[4,5-b]quinoline-1,10-dione]: 692 nM. Compound `CC(c1cnccn1)n1nc(O)c2[nH]c3cc(Cl)ccc3c(=O)c2c1=O` (centres unmarked) [Ex. 23, 7-Chloro-4-hydroxy-2-(ethyl-1-(pyrazin-2-yl))-1,2,5,10-tetrahydropyridazino [4,5-b]quinoline-1,10-dione] gave a Ki in data set [1] (setting [3]) of 336 nM. In the case of “(+/−)-7-Chloro-4-hydroxy-2-(4-pyridylprop-1-yl)-1,2,5,10-tetrahydropyridazino[4,5-b]quinoline-1,10-dione sodium methanesulfonate [Ex. 3]”, the “Test C %Inh. (percent decrease in hyperalgesia at the MED)” value in data set [2] (at the MED, compared to vehicle-treated animals) was found to be 10%. In addition, in data set [2] (dose giving statistically significant decrease in hyperalgesia), the “Test C MED (minimum effective dose)” value was 30 mg/kg/day. The inhibitory constant (Ki) in data set [1] (setting [3]) was determined as 1940 nM.
